Test results published in patent US10800806B2, “Sterol derivatives and use thereof for treating diseases involving transformed astrocyte cells or for treating malignant haemopathies” (BETA INNOV, priority 2012, dated 2020).

Legend:
[1] = system: liver cells; assay: Toxicity in vitro on primary cultures of liver cells; type: cell-based, human; conditions: 30 μM, at least 30 days of treatment
Protocol: Of human origin, they were obtained from ScienCell, USA (ref. 50200) as was the culture medium (ref. 5201), which contains 10% (v/v) FCS. The doubling time of these cells is 24 h. • Renal cells
(§1) The same methods are used for both cases. For the activity, the anti-GBM potential of the test compounds is used, and the toxicity, is tested on normal cells of human origin maintained “in vitro”.
(§2) The cells used are liver cells (ScienCell, USA, ref. 50200), kidney cells (ScienCell, USA, ref. 4120), skeletal muscle cells (ScienCell, USA, ref. 3500) and cardiac cells (ScienCell, USA, ref. 6300), of human origin, mentioned above (section II, A).

[2] = system: cardiac cells; assay: Toxicity in vitro on primary cultures of cardiac cells; type: cell-based, human; conditions: 30 μM, at least 30 days of treatment
Protocol: These cells, of human origin, were obtained from ScienCell, USA (ref. 6300) as was the culture medium, which contains 10% (v/v) FCS. The doubling time is 72 h. • Skeletal muscle cells
as §1, §2

[3] = system: kidney cells; assay: Toxicity in vitro on primary cultures of kidney cells; type: cell-based, human; conditions: 30 μM, at least 30 days of treatment
Protocol: These cells, of human origin, were obtained from ScienCell, USA (ref. 4120) as was the culture medium (ref. 4101), which contains 10% (v/v) FCS. The doubling time is 96 h. • Cardiac cells
as §1, §2

[4] = system: human glioblastoma lines (GBM, line U-87 MG); assay: Anti-GBM activity in vitro on cultures of human U87-MG cells, cell aggregates (CA); type: cell-based
Protocol: Plastic flat-bottomed 96-well culture plates (NUNC, USA) treated for cell culture (Sigma-Aldrich, ref. 114754) are used; 1500 cells are seeded per well in 200 μl of culture medium. At the time of treatment, 100 μl of pure culture medium, 100 μl of culture medium containing ethanol, or liposomes, or 100 μl of culture medium containing the active ingredients are added per well; the final volume of the culture medium, after treatment, is therefore 300 μl for all the wells.
The human glioblastoma lines (GBM, line U-87 MG) and their culture medium (Eagle's Minimum Essential Medium or EMEM) were obtained from ATCC (USA, ref. ATCC-HTB-14). Culture of the cells is started and maintained according to the recommendations of the ATCC. These lines are commonly used “in vitro” and “in vivo” for testing anti-GBM potential. The doubling time of these lines is 16 h.
The active ingredients are either dissolved in absolute ethanol (AnalaR, NORMAPUR, VWR, France) or in the form of a liposomal solution, such as 10 μl of the stock solutions diluted in 990 μl and then added to the culture wells ([…] medium per well BI-GBM: 300 μl).
When the active ingredients are in ethanolic solution, the culture medium contains […] ethanol (v/v).
Briefly, the compounds to be tested, namely the compounds according to the invention (active ingredients) or 7β-OHCH—C3-ester (a derivative of 7beta-hydroxysterol esterified in position 3 with an oleate group, the synthesis of which is described by Rakotoarivelo et al. (18) and used as control), soya phosphatidylcholine (Sigma) as well as cholesteryl-3-sulphate (Sigma) are taken from their stock solutions prepared from dichloroethane in the case of the active ingredients and the 7β-OHCH—C3-ester, a chloroform:methanol mixture (9:1, v/v) in the case of phosphatidylcholine and chloroform in the case of cholesteryl-3-sulphate. The molar ratios are 1 M/0.1 M/0.25 M for phosphatidylcholine, cholesteryl-3-sulphate and the 7β-OHCH—C3-ester and the active ingredients respectively.
After evaporation, a solution of PBS saline, without Ca^2+ and Mg^2+, pH7.2 (BioRad) is added to the dry compound. The volume of buffer and the mass of the products are adjusted so that 20 or 10 μl of liposomes added to 90 μl of culture medium gives the desired final concentrations. The liposomes are formed by the extrusion technique with Liposofast (Sodexim, SA Muizon, France). The solution is passed through polycarbonate filtration membranes (100 nm) 41 times. The liposomes are sterilized by filtration on […] Millipore membranes.
For example, in the case of the cultures in 96-well plates and as a function of the magnification of the microscope used (objectives×10 or ×20, oculars×10), a photograph taken represents a field of view with a diameter equal to 1/5 of the diameter of a well. Therefore the total number of cells in a well is equal to […] the number of cells per photograph. This technique was compared with a standard technique (trypsinization of the cell layer, centrifugation of the cells, suspension of the cells in physiological saline solution and counting with a THOMA cell) in the case of the C6 cells. The results obtained are identical for both methods.
The culture medium is withdrawn from each well and 50 μl of Laemmli buffer (0.1 ml of Tris, 0.8 ml of glycerol, 1.6 mL of 10% SDS, 8 ml q.s.f ultrapure water) is added per well.
This test makes it possible to detect the cellular respiration, especially the mitochondrial respiration. The stock solution of tetrazolium salt MTT (3-(4,5-dimethylthiazol-2-yl)-2,5-diphenyl tetrazolium bromide, Sigma-Aldrich, USA, ref. M5655) is prepared with 10 mg of MIT/ml of PBS buffer (phosphate-buffered saline, SIGMA, ref. D 1408). This solution is added directly to the culture medium in each well; the final concentration of MTT is 25 μg/ml. The plate is then incubated at 37° C. for at least 1 h. […]

[5] = system: normal (non-cancerous) human astrocytes; assay: Toxicity in vitro on primary cultures of normal human astrocytes; type: cell-based; conditions: 30 μM, after 30 days of treatment
Protocol: The astrocyte cells of human origin used were obtained from ScienCell, USA (ref. 1800) as well as their culture medium, made up of basic medium containing 2% (v/v) FCS serum (ref. 0010), astrocyte growth proteins (AGS, ref. 1852) and a solution of penicillin/streptomycin (ref. 0503). The doubling time of these human astrocytes is 96 h. • Hepatic cells
as §1
The cells used are cells of human origin (ScienCell, USA, ref. 1800), mentioned above (section II, A).
The astrocyte type is validated by the presence of GFAP, the standard marker of normal astrocytes (FIG. 11; magnification×200).

[6] = system: skeletal muscle cells; assay: Toxicity in vitro on primary cultures of skeletal muscle cells; type: cell-based, human; conditions: 30 μM, at least 30 days of treatment
Protocol: Of human origin, they were obtained from ScienCell, USA (ref. 3500) as was the culture medium (ref. 3501), which contains 10% (v/v) FCS. The doubling time for these cells is 72 h.
as §1, §2

SMILES	toxicity ([1]; ethanolic form)	toxicity ([2]; ethanolic form)	toxicity ([3]; ethanolic form)	remaining GBM cells ([4]; 30 μM, ethanolic form, even after removing the active ingredient)	cellular respiration before cell death ([4]; ethanolic form)	reduction of the level of proteins relative to the untreated control cells ([4]; ethanolic form)	cellular multiplication after replacement of the culture medium with fresh drug-free medium ([4]; medium replaced at 22 days)	toxicity ([5]; ethanolic form)	toxicity ([6]; ethanolic form)	toxicity ([1]; liposomal form)	toxicity ([2]; liposomal form)	toxicity ([3]; liposomal form)	presence of GBM cells (CA) ([4]; 15 μM, liposomal form, 15 days of treatment)	cellular respiration before cell death ([4]; liposomal form)	MTT/cell relative to the controls ([4]; liposomal form, 8 days of treatment)	cell multiplication after replacing the medium with fresh drug-free medium ([4]; liposomal form, medium replaced on the 13th day of treatment)	toxicity ([5]; liposomal form)	toxicity ([6]; liposomal form)
CC(=O)OC1C=C2CC(OC(=O)C3COC(C)(C)O3)CCC2(C)C2CCC3(C)C(C(C)CCCC(C)C)CCC3C12 (stereo not drawn) [Molecule 2.b, 7-acetoxy-10,13-dimethyl-17-(6-methylheptan-2-yl)-2,3,4,7,8,9,10,11,12,13,14,15,16,17-tetradecahydro-1H-cyclopenta[a]phenanthren-3-yl 2,2-dimethyl-1,3-dioxolane-4-carboxylate]	not toxic	not toxic	not toxic	no GBM cell remains	cellular respiration increases before cell death	100%	does not lead to any cellular multiplication	not toxic	not toxic	–	–	–	–	–	–	–	–	–
CC(C)CCCC(C)C1CCC2C3C(OC(=O)OC(C)(C)C)C=C4CC(OC(=O)C5COC(C)(C)O5)CCC4(C)C3CCC12C (stereo not drawn) [Molecule 2.a, 7-((tert-butoxycarbonyl)oxy)-10,13-dimethyl-17-(6-methylheptan-2-yl)-2,3,4,7,8,9,10,11,12,13,14,15,16,17-tetradecahydro-1H-cyclopenta[a]phenanthren-3-yl 2,2-dimethyl-1,3-dioxolane-4-carboxylate]	–	–	–	–	–	–	–	–	–	not toxic	not toxic	not toxic	zero	cellular respiration increases before cell death	140%	no cell multiplication is observed	not toxic	not toxic
